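Values below derive from 48-hour exposures of cells grown in 96-well plates, with endpoints linearly interpolated between the two concentrations bracketing the appropriate inhibition level. Here, GI50 denotes the concentration required for 50% inhibition of growth.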 Activity calls are given as the source filed them. Rule as the data show it: active = GI50 up to about 1.1 µM and inactive = higher.
Assays:
Assay in all cases: NCI tumour cell line growth inhibition, 48 h
BT-549 = test system: BT-549
CCRF-CEM = test system: CCRF-CEM
HCT-116 = test system: HCT-116
HOP-92 = test system: HOP-92
Hs-578T = test system: Hs-578T
IGROV-1 = test system: IGROV-1
M14 = test system: M14
MCF7 = test system: MCF7
MDA-MB-435 = test system: MDA-MB-435
NCI-H460 = test system: NCI-H460
NCI/ADR-RES = test system: NCI/ADR-RES
OVCAR-5 = test system: OVCAR-5
SF-268 = test system: SF-268
SF-539 = test system: SF-539
SN12C = test system: SN12C
T47D = test system: T47D
U-251 = test system: U-251
UO-31 = test system: UO-31
MDA-N = test system: MDA-N
PC-3 = test system: PC-3

| SMILES | GI50 (BT-549) | GI50 (CCRF-CEM) | GI50 (HCT-116) | GI50 (HOP-92) | GI50 (Hs-578T) | GI50 (IGROV-1) | GI50 (M14) | GI50 (MCF7) | GI50 (MDA-MB-435) | GI50 (NCI-H460) | GI50 (NCI/ADR-RES) | GI50 (OVCAR-5) | GI50 (SF-268) | GI50 (SF-539) | GI50 (SN12C) | GI50 (T47D) | GI50 (U-251) | GI50 (UO-31) | GI50 (MDA-N) | GI50 (PC-3) |
| --- | --- | --- | --- | --- | --- | --- | --- | --- | --- | --- | --- | --- | --- | --- | --- | --- | --- | --- | --- | --- |
| O=C(O)c1ccccc1/C=C1\Cc2ccc3c(c2C1=O)CCCC3 | 41 µM (inactive) | 30.4 µM (inactive) | 30.1 µM (inactive) | 14.3 µM (inactive) | 34.1 µM (inactive) | 31 µM (inactive) | 28.9 µM (inactive) | 48.3 µM (inactive) | 44.7 µM (inactive) | 32 µM (inactive) | 32.1 µM (inactive) | 73.1 µM (inactive) | 64 µM (inactive) | 26.4 µM (inactive) | 26.2 µM (inactive) | 19.6 µM (inactive) | 44.7 µM (inactive) | 63.5 µM (inactive) | – | – |
| CCOC(=O)NN(C(=O)OCC)C(=C(C1=CCCCC1)N1CCOCC1)N(NC(=O)OCC)C(=O)OCC | > 100 µM (inactive) | – | – | > 100 µM (inactive) | – | > 100 µM (inactive) | > 100 µM (inactive) | > 100 µM (inactive) | > 100 µM (inactive) | > 100 µM (inactive) | > 100 µM (inactive) | > 100 µM (inactive) | > 100 µM (inactive) | – | > 100 µM (inactive) | > 100 µM (inactive) | > 100 µM (inactive) | > 100 µM (inactive) | > 100 µM (inactive) | > 100 µM (inactive) |
| CC(=O)Oc1cc2c(n(C)c1=O)CCC2 | > 100 µM (inactive) | > 100 µM (inactive) | > 100 µM (inactive) | > 100 µM (inactive) | – | > 100 µM (inactive) | > 100 µM (inactive) | > 100 µM (inactive) | > 100 µM (inactive) | > 100 µM (inactive) | 35.5 µM (inactive) | > 100 µM (inactive) | > 100 µM (inactive) | > 100 µM (inactive) | > 100 µM (inactive) | – | > 100 µM (inactive) | 99.5 µM (inactive) | – | > 100 µM (inactive) |
| Cc1cc2cc3c(Cl)c(CCCl)c(C)nc3cc2c(Cl)c1CCCl | 19.9 µM (inactive) | 23.4 µM (inactive) | 15.8 µM (inactive) | 13.9 µM (inactive) | 9.84 µM (inactive) | 26.2 µM (inactive) | – | 26.9 µM (inactive) | 15.6 µM (inactive) | 14.7 µM (inactive) | 22.9 µM (inactive) | – | 11.2 µM (inactive) | 12.1 µM (inactive) | – | 15.8 µM (inactive) | 23.5 µM (inactive) | 16.1 µM (inactive) | – | 14.4 µM (inactive) |
| OC(c1ccc(C(F)(F)F)cc1)C(F)(F)c1nc2ccccc2o1 (stereo unspecified) | > 100 µM (inactive) | > 100 µM (inactive) | > 100 µM (inactive) | > 100 µM (inactive) | > 100 µM (inactive) | > 100 µM (inactive) | > 100 µM (inactive) | > 100 µM (inactive) | > 100 µM (inactive) | > 100 µM (inactive) | > 100 µM (inactive) | – | > 100 µM (inactive) | > 100 µM (inactive) | – | > 100 µM (inactive) | > 100 µM (inactive) | > 100 µM (inactive) | – | > 100 µM (inactive) |
| CCOc1c(/N=N/c2ccccc2Cl)c(-c2ccccc2)nn1C(=S)S | 35.9 µM (inactive) | – | 28 µM (inactive) | 54 µM (inactive) | 22.2 µM (inactive) | 42.6 µM (inactive) | 47.9 µM (inactive) | 37.8 µM (inactive) | 29 µM (inactive) | 45.2 µM (inactive) | 33.8 µM (inactive) | 61 µM (inactive) | > 100 µM (inactive) | 14.2 µM (inactive) | 9.06 µM (inactive) | 22.2 µM (inactive) | 51.1 µM (inactive) | 35.6 µM (inactive) | – | 48.2 µM (inactive) |
| COc1cc(OC)c(OC)cc1/C=C1\C=Cc2ccccc21 | – | 16.3 µM (inactive) | 5.65 µM (inactive) | – | 22.9 µM (inactive) | 26.9 µM (inactive) | – | 12.1 µM (inactive) | 5.32 µM (inactive) | 10.3 µM (inactive) | 17.4 µM (inactive) | 12.5 µM (inactive) | 17.1 µM (inactive) | 15.2 µM (inactive) | 18.8 µM (inactive) | 7.89 µM (inactive) | 9.12 µM (inactive) | 16.3 µM (inactive) | 9.18 µM (inactive) | 5.52 µM (inactive) |
| Oc1ccc(Cl)cc1C1=NC(NCNC2=NC(c3ccccc3)CC(c3cc(Cl)ccc3O)=N2)=NC(c2ccccc2)C1 (stereo unspecified) | > 100 µM (inactive) | 61 µM (inactive) | 56 µM (inactive) | > 100 µM (inactive) | – | 61.2 µM (inactive) | > 100 µM (inactive) | 20.9 µM (inactive) | 47.9 µM (inactive) | 87.1 µM (inactive) | 82.4 µM (inactive) | 44.1 µM (inactive) | 97.9 µM (inactive) | > 100 µM (inactive) | – | – | > 100 µM (inactive) | 54.2 µM (inactive) | 79.1 µM (inactive) | > 100 µM (inactive) |
| NC(=S)N/N=C\CC(O)(C(F)(F)F)C(F)(F)F | – | > 10 µM (inactive) | > 10 µM (inactive) | > 10 µM (inactive) | > 10 µM (inactive) | > 10 µM (inactive) | > 10 µM (inactive) | > 10 µM (inactive) | > 10 µM (inactive) | > 10 µM (inactive) | > 10 µM (inactive) | – | > 10 µM (inactive) | > 10 µM (inactive) | > 10 µM (inactive) | > 10 µM (inactive) | > 10 µM (inactive) | > 10 µM (inactive) | > 10 µM (inactive) | > 10 µM (inactive) |
| Nc1ncc2c(n1)-c1ccccc1OC2N1CCCC1 (stereo unspecified) | – | > 100 µM (inactive) | > 100 µM (inactive) | 83.9 µM (inactive) | > 100 µM (inactive) | 80.7 µM (inactive) | > 100 µM (inactive) | > 100 µM (inactive) | > 100 µM (inactive) | > 100 µM (inactive) | > 100 µM (inactive) | > 100 µM (inactive) | > 100 µM (inactive) | > 100 µM (inactive) | > 100 µM (inactive) | – | > 100 µM (inactive) | 92 µM (inactive) | > 100 µM (inactive) | > 100 µM (inactive) |
| COC1=C(C)C(=O)C2=C(C1=O)C1C3CC4=C(C(=O)C(OC)=C(C)C4=O)C(CNC(=O)C(C)=O)N3C(C#N)C(C2)N1C (stereo unspecified) | < 0.001 µM (active) | 0.00839 µM (active) | 0.00711 µM (active) | 0.00442 µM (active) | < 0.001 µM (active) | 0.00424 µM (active) | 0.00417 µM (active) | 0.01 µM (active) | 0.0016 µM (active) | 0.0101 µM (active) | 0.296 µM (active) | 0.0172 µM (active) | 0.014 µM (active) | 0.00891 µM (active) | – | < 0.001 µM (active) | 0.00811 µM (active) | – | – | 0.00352 µM (active) |
| NC(=S)N/N=C1/CCCC2CCCC[C@@H]12 (stereo partly specified) | – | > 100 µM (inactive) | – | > 100 µM (inactive) | 76.4 µM (inactive) | > 100 µM (inactive) | > 100 µM (inactive) | > 100 µM (inactive) | > 100 µM (inactive) | > 100 µM (inactive) | > 100 µM (inactive) | > 100 µM (inactive) | > 100 µM (inactive) | > 100 µM (inactive) | – | 37.4 µM (inactive) | > 100 µM (inactive) | > 100 µM (inactive) | > 100 µM (inactive) | > 100 µM (inactive) |
